# Target: T1, Human Polymorphonuclear Leukocyte Elastase (Homo sapiens, UniProt P08246)
# T1 construct: Crude extract of human polymorphonuclear leukocytes (PMN) containing elastase activity; from tissue; host or cells: human polymorphonuclear leukocytes (crude extract)
# T1 sequence (P08246 30-267): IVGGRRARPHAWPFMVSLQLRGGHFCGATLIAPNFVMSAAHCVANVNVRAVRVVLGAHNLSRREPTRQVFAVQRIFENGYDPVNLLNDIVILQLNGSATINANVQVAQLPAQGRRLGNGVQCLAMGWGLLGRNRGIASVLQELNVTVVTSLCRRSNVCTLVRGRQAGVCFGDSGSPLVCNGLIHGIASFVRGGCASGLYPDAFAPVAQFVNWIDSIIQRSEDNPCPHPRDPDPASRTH
# Assay: Enzyme assay for inhibition of human polymorphonuclear leukocyte elastase via hydrolysis of Boc-AAPAN or Boc-AAPVN
# Assay type: biochemical
# Settings: pH 7.5, second order rate constant for inactivation of the enzyme, expressed to the nearest thousand, read-out: Kobs/[I]
# Summary of the method: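 Crude human PMN extract as enzyme source, with 0.2 mM Boc-AAPAN in 0.05M TES buffer pH 7.5. Inhibitors in DMSO were added to substrate before the extract, and rate was followed as ΔOD/min at 410 mµ. Values are kobs/I, the second-order inactivation rate constant (per mole per second).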
row,kinact/KI,Compound
1,421000 M⁻¹ s⁻¹,CCC[C@@H](NC(=O)N1C(=O)C(CC)(CC)[C@@H]1Oc1ccc(CC(=O)N2CCOCC2)cc1)c1ccc(C(=O)OCCN(C)C)cc1 [Compound 282]
2,393000 M⁻¹ s⁻¹,CCC[C@@H](NC(=O)N1C(=O)C(CC)(CC)[C@@H]1Oc1ccc(CC(=O)N2CCOCC2)cc1)c1ccc(C(=O)N(C)CCN(C)C)cc1 [Compound 283]
3,551000 M⁻¹ s⁻¹,CCC[C@@H](NC(=O)N1C(=O)C(CC)(CC)[C@@H]1Oc1ccc(C(=O)N(C)CCN(C)C)cc1)c1ccc(C(=O)N(C)C)cc1 [Compound 286]
4,113000 M⁻¹ s⁻¹,CCC[C@@H](NC(=O)N1C(=O)C(CC)(CC)[C@@H]1Oc1ccc(C(=O)N(C)CCN(C)C)cc1)c1ccc(C(=O)O)cc1 [Compound 287]
5,854000 M⁻¹ s⁻¹,CCC[C@@H](NC(=O)N1C(=O)C(CC)(CC)[C@@H]1Oc1ccc(C(=O)N(C)CCN(C)C)cc1)c1ccc(CO)cc1 [Compound 288]
6,1.01e+06 M⁻¹ s⁻¹,CCC[C@@H](NC(=O)N1C(=O)C(CC)(CC)[C@@H]1Oc1ccc(C(=O)N(C)CCN(C)C)cc1)c1ccc(OC)cc1 [Compound 290]
7,1.75e+06 M⁻¹ s⁻¹,CCC[C@@H](NC(=O)N1C(=O)C(CC)(CC)[C@@H]1Oc1ccc(C(=O)N(C)CCN(C)C)cc1)c1cccc(OC)c1 [Compound 291]
8,807000 M⁻¹ s⁻¹,CCC[C@@H](NC(=O)N1C(=O)C(CC)(CC)[C@@H]1Oc1ccc(CC(=O)N2CCOCC2)cc1)c1ccc(C)c(COC(=O)N(CC)CC)c1 [Compound 292]
9,457000 M⁻¹ s⁻¹,CCC[C@@H](NC(=O)N1C(=O)C(CC)(CC)[C@@H]1Oc1ccc(CC(=O)N(CC)CC)cc1)c1ccc(C)c(C(=O)N(CCC)CCC)c1 [Compound 293]
10,255000 M⁻¹ s⁻¹,CCC[C@@H](NC(=O)N1C(=O)C(CC)(CC)[C@@H]1Oc1ccc(CC(=O)N2CCOCC2)cc1)c1ccc(C)c(C(=O)N(CCC)CCC)c1 [Compound 294]
11,846000 M⁻¹ s⁻¹,CCC[C@@H](NC(=O)N1C(=O)C(CC)(CC)[C@@H]1Oc1ccc(C(=O)N(C)CCN(C)C)cc1)c1ccc(C#N)cc1 [Compound 295]
12,776000 M⁻¹ s⁻¹,CCC[C@@H](NC(=O)N1C(=O)C(CC)(CC)[C@@H]1Oc1ccc(C(=O)N(C)CCN(C)Cc2ccccc2)cc1)c1ccc(OCC)cc1 [Compound 296]
13,1.84e+06 M⁻¹ s⁻¹,CCC[C@@H](NC(=O)N1C(=O)C(CC)(CC)[C@@H]1Oc1ccc(C(=O)N2CCN(C)CC2)cc1)c1ccc(OC)cc1 [Compound 298]
14,1.48e+06 M⁻¹ s⁻¹,CCC[C@@H](NC(=O)N1C(=O)C(CC)(CC)[C@@H]1Oc1ccc(C(=O)N(C)CCN(C)C)cc1)c1ccc(Cl)cc1 [Compound 299]
15,1.28e+06 M⁻¹ s⁻¹,CCC[C@@H](NC(=O)N1C(=O)C(CC)(CC)[C@@H]1Oc1ccc(C(=O)N(C)CCN(CC)CC)cc1)c1ccc(Cl)cc1 [Compound 300]
16,1.5e+06 M⁻¹ s⁻¹,CCC[C@@H](NC(=O)N1C(=O)C(CC)(CC)[C@@H]1Oc1ccc(C(=O)N(C)CCN(C(C)C)C(C)C)cc1)c1ccc(Cl)cc1 [Compound 301]
17,1.46e+06 M⁻¹ s⁻¹,CCC[C@@H](NC(=O)N1C(=O)C(CC)(CC)[C@@H]1Oc1ccc(C(=O)N(C)CCN(C)Cc2ccccc2)cc1)c1ccc(Cl)cc1 [Compound 302]
18,749000 M⁻¹ s⁻¹,"CCC[C@@H](NC(=O)N1C(=O)C(CC)(CC)[C@@H]1Oc1cc(C)c(C(=O)OCCN(CC)CC)c(C)c1)c1ccc(C)cc1 [Compound 305, 2-(diethylamino)ethyl [S-(R*,S*)]-4-[[3,3-diethyl-1-[[[1-(4-methylphenyl)butyl]amino]carbonyl]-4-oxo-2-azetidinyl]oxy]-2,6-dimethyl-benzoate]"
19,612000 M⁻¹ s⁻¹,"CCC[C@@H](NC(=O)N1C(=O)C(CC)(CC)[C@@H]1Oc1cc(C)c(C(=O)OCCN(C(C)C)C(C)C)c(C)c1)c1ccc(C)cc1 [Compound 306, 2-[bis(1-methylethyl)amino]-ethyl [S-(R*,S*)]-4-[[3,3-diethyl-1-[[[1-(4-methylphenyl)butyl]amino]carbonyl]-4-oxo-2-azetidinyl]oxy]-2,6-dimethyl-benzoate]"
20,352000 M⁻¹ s⁻¹,CCC[C@@H](NC(=O)N1C(=O)C(CC)(CC)[C@@H]1Oc1cc(C)c(C(=O)N(C)CCN(C)C)c(C)c1)c1ccc(C)cc1 [Compound 307]
21,377000 M⁻¹ s⁻¹,CCC[C@@H](NC(=O)N1C(=O)C(CC)(CC)[C@@H]1Oc1cc(C)c(C(=O)N(C)CCN(CC)CC)c(C)c1)c1ccc(C)cc1 [Compound 308]
22,398000 M⁻¹ s⁻¹,CCC[C@@H](NC(=O)N1C(=O)C(CC)(CC)[C@@H]1Oc1cc(C)c(C(=O)N(CC)CCN(C)C)c(C)c1)c1ccc(C)cc1 [Compound 309]
23,838000 M⁻¹ s⁻¹,CCC[C@@H](NC(=O)N1C(=O)C(CC)(CC)[C@@H]1Oc1ccc(C(=O)N(C)CCN(C)C)c(O)c1)c1ccc(C)cc1 [Compound 310]

row,Compound,kinact/KI
1,CCC[C@@H](NC(=O)N1C(=O)C(CC)(CC)[C@@H]1Oc1ccc(CC(=O)N(C)CCN(C)C)cc1)c1ccc(O)cc1 [Compound 284],309000 M⁻¹ s⁻¹
2,CCC[C@@H](NC(=O)N1C(=O)C(CC)(CC)[C@@H]1Oc1ccc(CC(=O)N(C)CCN(C)C)cc1)c1ccc(OC)cc1 [Compound 289],754000 M⁻¹ s⁻¹

# Same assay, conditions: second order rate constant for inactivation of the enzyme, expressed to the nearest thousand; pH 7.5
row,Compound,Kobs/[I]
1,CCC[C@@H](NC(=O)N1C(=O)C(CC)(CC)[C@@H]1Oc1ccc(CC(=O)N(C)CCN(C)C)cc1)c1ccc(OC)cc1 [Compound 285],"566,000 per mole per second"
2,"[S-(R*,S*)]-2-[4-[[(4-Methyl)piperazin-1-yl]carbonyl] phenoxy]-((3,3-diethyl-N-[1-(methylphenyl)butyl]-4-oxo-1-azetidinecarboxamide [Compound 242]","1,700,000 per mole per second"
